≈ marks a conversion by molar mass, not a printed value.

The nature of data set [1]: Solubility pH 7. The settings on record: pH 7, aqueous buffer.
The target in data set [2] is T1, proteasome subunit β5 (beta5) (Homo sapiens, UniProt P28074).
T1 construct: Lysate from the human acute lymphoblastic leukemia cell line, MOLT-4; endogenous in cells; host or cells: MOLT-4
Description: Proteasome active-site ELISA (ProCISE), beta5, MOLT-4 lysate. Particulars: MOLT4 lysate, human, 1 h continuous treatment, 25° C. The format is biochemical. How it is done:
(§1) Test compounds were serially diluted in DMSO at 100× concentration, then diluted to 10× in aqueous hypotonic lysis buffer. Lysate from the human acute lymphoblastic leukemia cell line, MOLT-4, was treated for 1 hour at 25° C. with compound at a final 1× concentration. […] Following, lysate was denatured in guanidine hydrochloride, and subunits bound to probe were isolated with streptavidin-conjugated sepharose beads. Individual subunits (e.g., β5, LMP7, LMP2, MECL-1) were probed with subunit-specific primary antibodies, followed by HRP-conjugated secondary antibodies. A chemiluminescent substrate was used to generate signal associated with HRP binding, which was detected on a plate reader. Luminescent signal was normalized to protein content, then, percent activity calculated relative to DMSO-treated controls to generate IC50 curves.

Data set [3] concerns the target T2, immunoproteasome subunit LMP7 (Homo sapiens, UniProt P28062).
T2 construct: Lysate from the human acute lymphoblastic leukemia cell line, MOLT-4; endogenous in cells; host or cells: MOLT-4
Description: Proteasome active-site ELISA (ProCISE), LMP7, MOLT-4 lysate. Format: biochemical. The settings on record: MOLT4 lysate, 1 h continuous treatment, 25° C. As for the experimental part:
as §1
(In general: ELISA stands for enzyme-linked immunosorbent assay.)

On to `COc1ccc(C[C@H](NC(=O)[C@H](C)NC(=O)CN2CCOCC2)C(=O)N[C@@H](CC2=CCCC2)C(=O)[C@@]2(C)CO2)cc1O` [Compound C-1085, (S)-N-((S)-3-(cyclopent-1-en-1-yl)-1-((R)-2-methyloxiran-2-yl)-1-oxopropan-2-yl)-3-(3-hydroxy-4-methoxyphenyl)-2-((S)-2-(2-morpholinoacetamido)propanamido)propanamide], for which the solubility in data set [1] was 8190 µg/mL (≈ 14 mM). The half-maximal inhibitory concentration (IC50) in data set [2] came to 1840 nM; in data set [3], 158 nM.

Turning to `COc1ccc(C[C@H](NC(=O)[C@@H](C)NC(=O)[C@H]2CC[C@](C)(O)CC2)C(=O)N[C@@H](CC2=CCCC2)C(=O)[C@@]2(C)CO2)cc1` [Compound C-1087, (1r,4R)-N-((R)-1-(((S)-1-(((S)-3-(Cyclopent-1-en-1-yl)-1-((R)-2-methyloxiran-2-yl)-1-oxopropan-2-yl)amino)-3-(4-methoxyphenyl)-1-oxopropan-2-yl)amino)-1-oxopropan-2-yl)-4-hydroxy-4-methylcyclohexanecarboxamide], in data set [1], the concentration in solution (solubility) came to 1130 µg/mL (≈ 1.93 mM). Besides, the results for the IC50 in data set [2] and in data set [3] were 1750 nM and 59.9 nM, respectively.

`COc1ccc(C[C@H](NC(=O)[C@@H](C)NC(=O)[C@H]2CC[C@@](C)(O)CC2)C(=O)N[C@@H](CC2=CCCC2)C(=O)[C@@]2(C)CO2)cc1` [Compound C-1088, (1s,4S)-N-((R)-1-(((S)-1-(((S)-3-(cyclopent-1-en-1-yl)-1-((R)-2-methyloxiran-2-yl)-1-oxopropan-2-yl)amino)-3-(4-methoxyphenyl)-1-oxopropan-2-yl)amino)-1-oxopropan-2-yl)-4-hydroxy-4-methylcyclohexanecarboxamide] displayed a solubility in data set [1] of 1410 µg/mL (≈ 2.42 mM). Besides, the IC50 was found to be 2250 nM in data set [2] and 132 nM in data set [3].

As to `COc1ccc(C[C@H](NC(=O)[C@@H](C)NC(=O)[C@H]2CC[C@H](O)CC2)C(=O)N[C@@H](CC2=CCCCC2)C(=O)[C@@]2(C)CO2)cc1` [Compound C-1089, (1r,4R)-N-((R)-1-(((S)-1-(((S)-3-(cyclohex-1-en-1-yl)-1-((R)-2-methyloxiran-2-yl)-1-oxopropan-2-yl)amino)-3-(4-methoxyphenyl)-1-oxopropan-2-yl)amino)-1-oxopropan-2-yl)-4-hydroxycyclohexanecarboxamide], the concentration in solution in data set [1] (solubility) was 985 µg/mL (≈ 1.69 mM). Also, the IC50 turned out to be 8970 nM in data set [2] and 57.6 nM in data set [3].

For the molecule `COc1ccc(C[C@H](NC(=O)[C@@H](C)NC(=O)[C@H]2CC[C@H](O)CC2)C(=O)N[C@@H](CC2CCC2)C(=O)[C@@]2(C)CO2)cc1` [Compound C-1090, (1r,4R)-N-((R)-1-(((S)-1-(((S)-3-cyclobutyl-1-((R)-2-methyloxiran-2-yl)-1-oxopropan-2-yl)amino)-3-(4-methoxyphenyl)-1-oxopropan-2-yl)amino)-1-oxopropan-2-yl)-4-hydroxycyclohexanecarboxamide], the solubility in data set [1] was 979 µg/mL (≈ 1.76 mM). Also, the half-maximal inhibitory concentration (IC50) in data set [2] came to 6630 nM; in data set [3], 262 nM.

With `COc1ccc(C[C@H](NC(=O)[C@@H](CO)NC(=O)[C@H]2CC[C@H](O)CC2)C(=O)N[C@@H](CC2=CCCC2)C(=O)[C@@]2(C)CO2)cc1` [Compound C-1092, (1r,4R)-N-((R)-1-(((S)-1-(((S)-3-(cyclopent-1-en-1-yl)-1-((R)-2-methyloxiran-2-yl)-1-oxopropan-2-yl)amino)-3-(4-methoxyphenyl)-1-oxopropan-2-yl)amino)-3-hydroxy-1-oxopropan-2-yl)-4-hydroxycyclohexanecarboxamide], the solubility in data set [1] came to 3070 µg/mL (≈ 5.24 mM). Further, the IC50 in data set [2] was 2040 nM; in data set [3], 29.3 nM.

In data set [1], `C[C@@H](NC(=O)[C@H]1CC[C@H](O)CC1)C(=O)N[C@@H](Cc1ccc(S(C)(=O)=O)cc1)C(=O)N[C@@H](CC1=CCCC1)C(=O)[C@@]1(C)CO1` [Compound C-1096, (1r,4R)-N-((R)-1-(((S)-1-(((S)-3-(cyclopent-1-en-1-yl)-1-((R)-2-methyloxiran-2-yl)-1-oxopropan-2-yl)amino)-3-(4-(methylsulfonyl)phenyl)-1-oxopropan-2-yl)amino)-1-oxopropan-2-yl)-4-hydroxycyclohexanecarboxamide] showed a solubility of 917 µg/mL (≈ 1.48 mM). Moreover, the figures for the IC50 in data set [2] and in data set [3] were 868 nM and 25.2 nM, respectively.

On to `COc1ccc(C[C@H](NC(=O)[C@@H](C)NC(=O)[C@H]2CC[C@@H](O)CC2)C(=O)N[C@@H](CC2=CCCCC2)C(=O)[C@@]2(C)CO2)cc1` [Compound C-1097, (1s,4S)-N-((R)-1-(((S)-1-(((S)-3-(cyclohex-1-en-1-yl)-1-((R)-2-methyloxiran-2-yl)-1-oxopropan-2-yl)amino)-3-(4-methoxyphenyl)-1-oxopropan-2-yl)amino)-1-oxopropan-2-yl)-4-hydroxycyclohexanecarboxamide], for which the solubility in data set [1] came out at 256 µg/mL (≈ 0.439 mM). Moreover, the figures for the 50% inhibitory concentration (IC50) in data set [2] and in data set [3] were 322 nM and 21.6 nM, respectively.

For `C[C@@H](NC(=O)[C@H]1CC[C@H](O)CC1)C(=O)N[C@@H](Cc1ccc(C#N)cc1)C(=O)N[C@@H](CC1CCCC1)C(=O)[C@@]1(C)CO1` [Compound C-1103, (1r,4R)-N-((R)-1-(((S)-3-(4-cyanophenyl)-1-(((S)-3-cyclopentyl-1-((R)-2-methyloxiran-2-yl)-1-oxopropan-2-yl)amino)-1-oxopropan-2-yl)amino)-1-oxopropan-2-yl)-4-hydroxycyclohexanecarboxamide], the concentration in solution in data set [1] (solubility) came to 2150 µg/mL (≈ 3.79 mM). The IC50 in data set [2] amounted to 1960 nM; in data set [3] it was 38.7 nM.

In data set [1], `COc1ccc(C[C@H](NC(=O)[C@H](CO)NC(=O)CN2CCOCC2)C(=O)N[C@@H](CC2=CCCCC2)C(=O)[C@@]2(C)CO2)cc1` [Compound C-1104, (S)-N-((S)-3-(cyclohex-1-en-1-yl)-1-((R)-2-methyloxiran-2-yl)-1-oxopropan-2-yl)-2-((S)-3-hydroxy-2-(2-morpholinoacetamido)propanamido)-3-(4-methoxyphenyl)propanamide] registered a solubility of 3270 µg/mL (≈ 5.44 mM). Also, the IC50 was 2210 nM in data set [2] and 72.4 nM in data set [3].

As for `C[C@@H](NC(=O)[C@H]1CC[C@H](O)CC1)C(=O)N[C@@H](Cc1ccc2[nH]cnc2c1)C(=O)N[C@@H](CC1CCCC1)C(=O)[C@@]1(C)CO1` [Compound C-1105, (1r,4R)-N-((R)-1-(((S)-3-(1H-benzo[d]imidazol-5-yl)-1-(((S)-3-cyclopentyl-1-((R)-2-methyloxiran-2-yl)-1-oxopropan-2-yl)amino)-1-oxopropan-2-yl)amino)-1-oxopropan-2-yl)-4-hydroxycyclohexanecarboxamide], the concentration in solution in data set [1] (solubility) came to 5690 µg/mL (≈ 9.79 mM). Further, the IC50 in data set [2] worked out at 3230 nM; in data set [3], 49.5 nM.

In data set [1], `CC[C@H](NC(=O)CN1CCOCC1)C(=O)N[C@@H](Cc1ccc(OC)cc1)C(=O)N[C@@H](CC1CCCC1)C(=O)[C@@]1(C)CO1` [Compound C-1106, (S)-N-((S)-1-(((S)-3-cyclopentyl-1-((R)-2-methyloxiran-2-yl)-1-oxopropan-2-yl)amino)-3-(4-methoxyphenyl)-1-oxopropan-2-yl)-2-(2-morpholinoacetamido)butanamide] gave a solubility of 960 µg/mL (≈ 1.64 mM). The values for the IC50 in data set [2] and in data set [3] were 284 nM and 49.8 nM, respectively.

As to `COc1ccc(C[C@H](NC(=O)[C@H](CO)NC(=O)CN2CCOCC2)C(=O)N[C@@H](CC2=CCCCC2)C(=O)[C@@]2(C)CO2)cc1O` [Compound C-1109, (S)-N-((S)-3-(Cyclohex-1-en-1-yl)-1-((R)-2-methyloxiran-2-yl)-1-oxopropan-2-yl)-2-((S)-3-hydroxy-2-(2-morpholinoacetamido)propanamido)-3-(3-hydroxy-4-methoxyphenyl)propanamide], the concentration in solution in data set [1] (solubility) came to 3820 µg/mL (≈ 6.2 mM). Further, the results for the IC50 in data set [2] and in data set [3] were 4090 nM and 181 nM, respectively.

With `C[C@]1(C(=O)[C@H](CC2=CCCCC2)NC(=O)[C@H](Cc2ccc(S(C)(=O)=O)cc2)NC(=O)[C@H](CO)NC(=O)CN2CCOCC2)CO1` [Compound C-1110, (S)-N-((S)-3-(Cyclohex-1-en-1-yl)-1-((R)-2-methyloxiran-2-yl)-1-oxopropan-2-yl)-2-((S)-3-hydroxy-2-(2-morpholinoacetamido)propanamido)-3-(4-(methylsulfonyl)phenyl)propanamide], in data set [1], the solubility stood at 8380 µg/mL (≈ 12.9 mM). For the same molecule, the concentration for half-maximal inhibition (IC50) amounted to 4340 nM in data set [2] and 217 nM in data set [3].

In data set [1], `COc1ccc([C@@H](O)[C@H](NC(=O)[C@H](CO)NC(=O)CN2CCOCC2)C(=O)N[C@@H](CC2=CCCCC2)C(=O)[C@@]2(C)CO2)cc1` [Compound C-1116, (2S,3R)-N-((S)-3-(Cyclohex-1-en-1-yl)-1-((R)-2-methyloxiran-2-yl)-1-oxopropan-2-yl)-3-hydroxy-2-((S)-3-hydroxy-2-(2-morpholinoacetamido)propanamido)-3-(4-methoxyphenyl)propanamide] registered a solubility of 8230 µg/mL (≈ 13.3 mM). Further, the concentration for half-maximal inhibition (IC50) in data set [2] is 2940 nM; in data set [3] it was 50.6 nM.

In the case of `Cc1ccc(C[C@H](NC(=O)[C@H](C)NC(=O)CN2CCOCC2)C(=O)N[C@@H](CC2CCCC2)C(=O)[C@@]2(C)CO2)cc1O` [Compound C-1117, (S)-N-((S)-3-Cyclopentyl-1-((R)-2-methyloxiran-2-yl)-1-oxopropan-2-yl)-3-(3-hydroxy-4-methylphenyl)-2-((S)-2-(2-morpholinoacetamido)propanamido)propanamide], the solubility in data set [1] was 1560 µg/mL (≈ 2.73 mM). Moreover, the 50% inhibitory concentration (IC50) came out at 1100 nM in data set [2] and 101 nM in data set [3].

Usually solubility stands for the concentration that dissolves in the medium under given conditions. Read a high solubility as a readily soluble substance. Broadly, the IC50 is the concentration at which inhibition is half-maximal. A higher IC50 goes with lower potency.

For the origin of these results see patent USRE47302E1 (ONYX THERAPEUTICS INC., priority 2013, dated 2019).
